This note sets out measurements from US20260242478A1, “ANTIBODIES FOR TARGETING PSMA AND CD28 AND USES THEREOF” (Janux Therapeutics, Inc., priority 2023, published 2026).

The test system of assay [1] is PSMA Fab (SEQ ID NOs: 19, 20). The experiment in a line: Kinetic binding of peptides to PSMA Fab, BLI. As for the experimental part:
Kinetic binding of the peptides of Table 9 to PSMA Fab (SEQ ID NOs: 19, 20) was evaluated using biolayer interferometry (BLI). Briefly, biotinylated peptides were loaded onto a streptavidin coated Octet® V SAX biosensor, quenched in biocytin, and baselined in buffer. […] After a short association period, sensors were transferred into buffer and the dissociation of bound Ab-1 was measured. Association and dissociation signals were recorded in real time and analyzed using a 1:1 binding model within the instrument software. Analysis using a 1:1 binding model enabled the calculation of the on and off rate constant as well as affinity, Kn.

The target in assay [2] is anti-CD28 scFv (disulfide) (SEQ ID NO: 10) binding to CD28 antigen. The experiment in a line: Inhibition of anti-CD28 scFv (disulfide) binding to CD28 by peptides, competition ELISA. The settings on record: anti-CD28 scFv (disulfide) fixed at 0.3 nM, 0-100 μM peptides.
Assay [3] has as its target anti-CD28 Fab (SEQ ID NOs: 696, 697). The experiment in a line: anti-CD28 Fab binding to peptides, ELISA. Conditions: for EC50: anti-CD28 Fab.
Assay [4] has as its target anti-CD28 Fab (SEQ ID NOs: 696, 697) binding to CD28 antigen. The experiment in a line: Inhibition of anti-CD28 Fab binding to CD28 by peptides, competition ELISA (incl. alanine scanning). The settings on record: Table 25; anti-CD28 Fab fixed at 1 nM, 0-100 μM peptides.
The test system of assay [5] is PSMA Fab (SEQ ID NOs: 19, 20). The experiment in a line: PSMA Fab binding to peptides, ELISA. The settings on record: for EC50: PSMA Fab binding to biotinylated peptide, ELISA. Here is the method:
Peptides of Table 9 were evaluated for their ability to bind to PSMA Fab in a standard enzyme linked immunosorbent assay (ELISA) format. […] PSMA Fab diluted in buffer was then added to the peptide captured plates. Bound antibody was detected using a standard horse radish peroxidase conjugate secondary antibody.

The target of assay [6] is Ab-15 (anti-CD28 scFv of SEQ ID NO: 9). The experiment in a line: Ab-15 (anti-CD28 scFv) binding to peptides, ELISA. Also on record: species or system human. Conditions: Table 20; Ab-15 binding to plate-captured biotinylated peptide or CD28-biotin. Here is the method:
Ab-15 diluted in buffer was then added to the peptide captured plates. Bound antibody was detected using a standard horse radish peroxidase conjugate secondary antibody.

Assay [7] deals with anti-CD28 scFv harbored in Ab-15 binding to the CD28 antigen. The experiment in a line: Inhibition of Ab-15 binding to CD28 by peptides, competition ELISA. The settings on record: Table 20; fixed Ab-15 pre-incubated with 0-100 μM titrated peptide, CD28 antigen coated plates. As for the experimental part: Ab-15 fixed at I nanomolar (nM) concentration was pre-incubated with 0-100 micromolar (μM) titrated peptides. After a short pre-incubation period, the mixture of titrated peptide with fixed Ab-15 were added to the CD28 antigen coated plates. After a short incubation on the plates, bound Ab-15 was detected with a standard horse radish peroxidase conjugated secondary antibody.

Assay [8] has as its target anti-CD28 scFv (disulfide) (SEQ ID NO: 10). As to the kind of experiment: anti-CD28 scFv (disulfide) binding to peptides, ELISA. The settings on record: Table 27. As for the experimental part: Peptides were evaluated for their ability to bind to ant-CD28 Fab (SEQ ID NOs: 696.697) or anti-CD28 scFv (disulfide) (SEQ ID NO: 10) in a standard ELISA format as described above.

MCQWDKINYWMDCD [Peptide-205]: the “Off rate t1/2” value in assay [1] (Table 39, 1:1 binding model) is less than 1 min.
YCAGHAWQYANKCL [Peptide-113] showed a half-inhibitory concentration (IC50) in assay [2] (Table 29) greater than 100000 nM.
In turn, LCKPGVPYKWPTCL [Peptide-156] yielded an EC50 in assay [3] (Table 25) greater than 1000 nM. The IC50 in assay [4] was greater than 100000 nM.
Taken in the same sequence, the figures for LCAAGFTYPWPLCL [Peptide-155] were greater than 1000 nM and greater than 100000 nM.
In the case of IAVLCQPNWMCAGF [Peptide-180], the “binding to the PSMA Fab” value in assay [5] was “strong binding”. This sequence displayed an EC50 in assay [5] (Table 38) of 33 nM. Further, the “Off rate t1/2” value is on record as less than 1 min in assay [1] (Table 38, 1:1 binding model) and 0.75 min in assay [1] (Table 39, 1:1 binding model).
For the sequence QCTWNEKTWWMECE [Peptide-204], the “Off rate t1/2” value in assay [1] (Table 39, 1:1 binding model) is given as less than 1 min.
Sequence CFYAEYYDQVYSFC [Peptide-18] showed an EC50 in assay [6] of 32.2 nM. The half-inhibitory concentration (IC50) in assay [7] is 3250 nM.
For the sequence MCQWDELNYWMDCD [Peptide-202], in assay [1] (Table 39, 1:1 binding model), the “Off rate t1/2” value is recorded as less than 1 min.
Regarding SKLLCVPPWMCYHV [Peptide-194], in assay [1] (Table 39, 1:1 binding model), the “Off rate t1/2” value is recorded as less than 1 min.
Consider LMKWCTPRWMCAAE [Peptide-179], for which, in assay [5], the “binding to the PSMA Fab” value is on record as “strong binding”. Moreover, the results for the EC50 in assay [5] (Table 38) and in assay [5] (Table 39) were 5.9 nM and 120 nM, respectively. Also, the “Off rate t1/2” value is given as less than 1 min in assay [1] (Table 38, 1:1 binding model) and 1.09 min in assay [1] (Table 39, 1:1 binding model).
Sequence SCAAGASYAWPYCA [Peptide-106] showed an IC50 in assay [2] (Table 29) greater than 100000 nM.
As to ADWCPRERWVDCFF [Peptide-19], the midpoint of the response in assay [6], the EC50, lay at 32.5 nM. The same sequence showed an IC50 in assay [7] of 4420 nM.
With SCAAGASYAWPYCL [Peptide-92], the “binding to the anti-CD28 Fab” value in assay [3] is “strong binding”. Further, the EC50 was 54 nM in assay [3] (Table 24), 18.9 nM in assay [3] (Table 25) and greater than 1000 nM in assay [8]. The sequence also showed an IC50 in assay [2] (Table 27) greater than 100000 nM.
